Consider two molecules from patent US4797399A, “Piperazine compounds and antithrombotic pharmaceutical composition comprising the same” (Fujisawa Pharmaceutical Co., Ltd., priority 1986, dated 1989).

SMILES strings stand for the structures. pIC50: −log10 of the molar value. Where two headings read alike, the source gives them in different places.

Experiment [1] has as its system platelet aggregation (ADP). The experiment in a line: Platelet aggregation in vitro, ADP-induced (rabbit platelet rich plasma). The experiment is classed as cell-based. To be noted: Oryctolagus cuniculus. Here is the method: (§1) Platelet rich plasma (PRP) which contains 6-7×10^8 platelets/ml was prepared from rabbit blood. To the 200 μl of PRP, 5 μl of calcium chloride (1 mM) and 50 μl of 25 mM Tris-acetate solution (pH 7.4) containing 120 mM NaCl or test compound were added successively, and then stirred for 2 min. at 37° C. […] Aggregation was measured by using an aggregometer. (NKK HEMA-TRACER 1).

The subject of experiment [2] is platelet aggregation (collagen). Nature of the experiment: Platelet aggregation in vitro, collagen-induced (rabbit platelet rich plasma). The experiment is classed as cell-based. Particulars: Oryctolagus cuniculus. Here is the method: as §1
The test system is the same in experiment [3]. The experiment in a line: Platelet aggregation ex vivo, collagen-induced, after oral administration to rats. Particulars: 1 hour after dosing, collagen 5.0 μg/ml. The experiment is classed as in vivo, Sprague-Dawley rats. The protocol: Male Sprague-Dawley rats weighing about 250 g were used after overnight fasting. One hour after oral administration of test compound or vehicle of test compound (control), blood was collected into a tube containing 0.1 vol. of 3.8% sodium citrate. To the 0.45 ml of blood, 0.05 ml of collagen (final concentration 5.0 μg/ml) was added and then incubated for 5 min. at 37° C. under shaking.
The reaction was terminated by addition of 1 ml of 10 mM phosphate buffered saline (pH 7.4) containing 11.5 mM EDTA and 1% formalin. The reaction mixture was centrifuged at 70×g for 5 min. and platelet count of upper phase was measured by Technicon Auto Analizer.
Platelet aggregation was calculated according to the following formula: [formula] A. Platelet count after addition of vehicle of collagen B. Platelet count after addition of collagen
Inhibition of the test compound was calculated according to the following formula; [formula] C. Platelet aggregation (%) of control D. Platelet aggregation (%) of Test compound

The next experiment has as its system carrageenin foot edema. The experiment in a line: Carrageenin foot edema. The experiment is classed as in vivo, Sprague-Dawley rats. Particulars: 320 mg/kg oral, 60 min before phlogogen, edema at 3 hours; * P < 0.05. The protocol: Male Sprague-Dawley rats weighing about 180 g were used in groups of five. Paw edema was induced by subplantar injection of 1% carrageenin (0.1 ml/rat) into the right hind paw in carrageenin foot edema. The test compound was suspended in methylcellulose and administered orally 60 minutes before phlogogen. Paw volume was measured with plethysmometer (Ugo Basil Co., Ltd.) by water displacement immersing the paw to the lateral malleolus. The difference of paw volume before and 3 hours after the phlogogen was designated as edema volume. The data analyzed statistically by student's t-test.
In general terms: In the carrageenan paw model, swelling and tenderness develop within hours.

The next experiment concerns systemic anaphylaxis. Nature of the experiment: Systemic anaphylaxis (passive sensitization with rabbit anti-ovalbumin serum, ovalbumin aerosol). The experiment is classed as in vivo, Hartley guinea pigs. Particulars: 30 min before antigen aerosol. Here is the method:
Male Hartley guinea pigs (300-400 g, n=5) were passively sensitized with i.v. injection of rabbit anti-ovalbumin serum. 24 Hours later, test compound was administered orally. 30 Min. after administration of test compound, sensitized animals were placed for 2 min. in a chamber filled with antigen aerosol (ovalbumin) by a conventional nebulizer. Survived animals were regarded as being protected from systemic anaphylaxis.

The subject of experiment [4] is acetic acid-induced writhing. Nature of the experiment: Acetic acid-induced writhing syndrome. The experiment is classed as in vivo, Scl:ddy strain mice. To be noted: 32 mg/kg oral, 60 min before 0.6% acetic acid i.p., 3-13 min count; * P < 0.01. Here is the method:
Male Scl:ddy strain mice aged 6 weeks were used in groups of 10. The test compound was suspended in methylcellulose and administered orally. After 60 min., 20 ml/kg of 0.6% acetic acid solution was administered i.p. and writhing episodes between 3 and 13 min. after acetic acid injection were counted. The data was analyzed statistically by student's t-test.
(In writhing tests, fewer writhes than in controls are read as antinociception.)

Regarding `CC(=O)Oc1ccccc1C(=O)O` [Aspirin, reference compound], the pIC50 in experiment [1] (pH 7.4, read-out: ID50 ADP (dose required to inhibit platelet aggregation by 50%)) is 2.49; in experiment [2] (pH 7.4, read-out: ID50 Collagen (dose required to inhibit platelet aggregation by 50%)), 4.51.
In the case of `Cl.NN1CCN(C(=O)Cn2c(=O)sc3ccc(Cl)cc32)CC1` [Example 5, 5-chloro-3-[(4-amino-1-piperazinyl)carbonylmethyl]-2-benzothiazolinone hydrochloride], the pIC50 in experiment [1] (inducer ADP (2.5 μM), rabbit PRP, pH 7.4, 37° C, read-out: ID50 ADP (dose required to inhibit platelet aggregation by 50%)) is 4.85; in experiment [2] (inducer collagen (2.5 μg/ml), rabbit PRP, pH 7.4, 37° C, read-out: ID50 Collagen (dose required to inhibit platelet aggregation by 50%)), 4.85. Also, the “Inhibition (%) of platelet aggregation ex vivo” value in experiment [3] (10 mg/kg oral) is on record as 2%; in experiment [3] (32 mg/kg oral) it was 67%; in experiment [3] (100 mg/kg oral) it was 100%. Further, in the experiment on carrageenin foot edema, the “Inhibition (%) of carrageenin foot edema” value is listed as 40.0%. The “Survival (%)” value worked out at 20% in the experiment on systemic anaphylaxis (10 mg/kg oral) and 100% in the experiment on systemic anaphylaxis (100 mg/kg oral). The “Inhibition (%) of acetic acid-induced writhing” value in experiment [4] was found to be 32.8%.
